Data as given in patent publication US20250282768A1 (Janssen Pharmaceutica NV, priority 2022, published 2025).

Test system: p-IKKa levels in L363 (NIK translocated multiple myeloma) cells
Experiment: Assay 2: Effect of compounds on p-IKKa levels in L363 (NIK translocated multiple myeloma) cells
Format: cell-based
Details: Homo sapiens, L-363, 6 h, read-out: Assay 2 IC50 (nM), p-IKKa (Ser 176/180) in BAFF stimulated L363 cells with MG132, 6 h; average if tested more than once
Summary of the method: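 Read-out is p-IKKa Ser176/180 by AlphaLISA SureFire in lysates. Cells were BAFF-primed (250 ng/ml) overnight or left unstimulated, then exposed 6 h at 37 °C to compound with MG132 (10 μM), 0.3% DMSO. IC50 from sigmoidal curve fit, normalized between stimulated and unstimulated controls.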

Compared with `CN1CC[C@@](O)(c2cc(-c3cccc(-c4ccnc(Nc5cnn(C)c5)n4)c3)no2)C1=O` [Example 72, (R)-3-Hydroxy-1-methyl-3-(3-(3-(2-((1-methyl-1H-pyrazol-4-yl)amino)pyrimidin-4-yl)phenyl)isoxazol-5-yl)pyrrolidin-2-one], `Cc1cc(-c2cc([C@]3(O)CCN(C)C3=O)on2)nc(-c2ccnc(Nc3cnn(C)c3)n2)c1` [Example 99, (R)-3-Hydroxy-1-methyl-3-(3-(4-methyl-6-(2-((1-methyl-1H-pyrazol-4-yl)amino)pyrimidin-4-yl)pyridin-2-yl)isoxazol-5-yl)pyrrolidin-2-one] is lower in IC50: greater than 500 nM for the first, less than 50 nM for the second. The second is the more potent here.

`[2H]C([2H])([2H])n1cc(Nc2nccc(-c3cccc(-c4cc([C@]5(O)CCN(C)C5=O)on4)n3)n2)cn1` [Example 73, (R)-3-Hydroxy-1-methyl-3-(3-(6-(2-((1-(methyl-d3)-1H-pyrazol-4-yl)amino)pyrimidin-4-yl)pyridin-2-yl)isoxazol-5-yl)pyrrolidin-2-one] and `[2H]C([2H])([2H])C([2H])([2H])n1cc(Nc2nccc(-c3cccc(-c4cc([C@]5(O)CCN(C)C5=O)on4)n3)n2)cn1` [Example 74, (R)-3-(3-(6-(2-((1-(Ethyl-d5)-1H-pyrazol-4-yl)amino)pyrimidin-4-yl)pyridin-2-yl)isoxazol-5-yl)-3-hydroxy-1-methylpyrrolidin-2-one] cannot be ordered by IC50: less than 50 nM for the first, less than 50 nM for the second.

`CN1CC[C@@](O)(c2cn(-c3cccc(-c4ccnc(Nc5ccn(C)n5)n4)n3)nn2)C1=O` [Example 75, (R)-3-Hydroxy-1-methyl-3-(1-(6-(2-((1-methyl-1H-pyrazol-3-yl)amino)pyrimidin-4-yl)pyridin-2-yl)-1H-1,2,3-triazol-4-yl)pyrrolidin-2-one] and `CN1CC[C@@](O)(c2cn(-c3cccc(-c4ccnc(Nc5cnn6ccccc56)n4)n3)nn2)C1=O` [Example 121, (R)-3-Hydroxy-1-methyl-3-(1-(6-(2-(pyrazolo[1,5-a]pyridin-3-ylamino)pyrimidin-4-yl)pyridin-2-yl)-1H-1,2,3-triazol-4-yl)pyrrolidin-2-one] cannot be ordered by IC50: less than 50 nM for the first, less than 50 nM for the second.

First: CN1CC[C@@](O)(c2cc(-c3cccc(-c4ccnc(Nc5cncc(F)c5)n4)n3)no2)C1=O [Example 86, (R)-3-(3-(6-(2-((5-Fluoropyridin-3-yl)amino)pyrimidin-4-yl)pyridin-2-yl)isoxazol-5-yl)-3-hydroxy-1-methylpyrrolidin-2-one]
Second: COc1ncc(Nc2nccc(-c3cccc(-c4cc([C@]5(O)CCN(C)C5=O)on4)n3)n2)cn1 [Example 112, (R)-3-Hydroxy-3-(3-(6-(2-((2-methoxypyrimidin-5-yl)amino)pyrimidin-4-yl)pyridin-2-yl)isoxazol-5-yl)-1-methylpyrrolidin-2-one]
The IC50 of the first is lower: less than 50 nM for the first, 50 to 500 nM for the second. The first is the more potent here.

First: CN1CC[C@@](O)(c2cc(-c3cccc(-c4ccnc(Nc5cnn(C6CCNC6)c5)n4)n3)no2)C1=O (stereo partly drawn) [Example 90, (3R)-3-Hydroxy-1-methyl-3-(3-(6-(2-((1-(pyrrolidin-3-yl)-1H-pyrazol-4-yl)amino)pyrimidin-4-yl)pyridin-2-yl)isoxazol-5-yl)pyrrolidin-2-one]
Second: CN1CC[C@@](O)(c2cc(-c3cccc(-c4ccnc(Nc5cnn(C6CC6)c5)n4)n3)no2)C1=O [Example 124, (R)-3-(3-(6-(2-((1-Cyclopropyl-1H-pyrazol-4-yl)amino)pyrimidin-4-yl)pyridin-2-yl)isoxazol-5-yl)-3-hydroxy-1-methylpyrrolidin-2-one]
The IC50 of the first is higher: 50 to 500 nM for the first, less than 50 nM for the second. The second is the more potent here.

`CCn1cc(Nc2nccc(-c3cccc(-c4cc([C@]5(O)CCN(C)C5=O)no4)n3)n2)cn1` [Example 91, (R)-3-(5-(6-(2-((1-Ethyl-1H-pyrazol-4-yl)amino)pyrimidin-4-yl)pyridin-2-yl)isoxazol-3-yl)-3-hydroxy-1-methylpyrrolidin-2-one] and `Cc1ncccc1Nc1nccc(-c2cccc(-c3cc([C@]4(O)CCN(C)C4=O)no3)n2)n1` [Example 111, (R)-3-Hydroxy-1-methyl-3-(5-(6-(2-((2-methylpyridin-3-yl)amino)pyrimidin-4-yl)pyridin-2-yl)isoxazol-3-yl)pyrrolidin-2-one] cannot be ordered by IC50: less than 50 nM for the first, less than 50 nM for the second.

`C[C@@H]1C[C@@](O)(c2cc(-c3cccc(-c4ccnc(Nc5ccn(C)n5)n4)n3)no2)C(=O)N1C` [Example 92, (3R,5R)-3-Hydroxy-1,5-dimethyl-3-(3-(6-(2-((1-methyl-1H-pyrazol-3-yl)amino)pyrimidin-4-yl)pyridin-2-yl)isoxazol-5-yl)pyrrolidin-2-one] and `CN1C(=O)[C@](O)(c2cc(-c3cccc(-c4ccnc(Nc5ccn(C)n5)n4)n3)no2)[C@H]2C[C@H]21` [Example 93, (1R,4R,5S)-4-Hydroxy-2-methyl-4-(3-(6-(2-((1-methyl-1H-pyrazol-3-yl)amino)pyrimidin-4-yl)pyridin-2-yl)isoxazol-5-yl)-2-azabicyclo[3.1.0]hexan-3-one] fall in the same range of IC50: 50 to 500 nM for the first, 50 to 500 nM for the second.

`CN1CC(F)(F)[C@@](O)(c2cc(-c3cncc(-c4ccnc(Nc5ccn(C)n5)n4)n3)no2)C1=O` [Example 94, (R)-4,4-Difluoro-3-hydroxy-1-methyl-3-(3-(6-(2-((1-methyl-1H-pyrazol-3-yl)amino)pyrimidin-4-yl)pyrazin-2-yl)isoxazol-5-yl)pyrrolidin-2-one] and `CN1CC[C@@](O)(c2cc(-c3cncc(-c4ccnc(Nc5ccn(C)n5)n4)n3)no2)C1=O` [Example 95, (R)-3-Hydroxy-1-methyl-3-(3-(6-(2-((1-methyl-1H-pyrazol-3-yl)amino)pyrimidin-4-yl)pyrazin-2-yl)isoxazol-5-yl)pyrrolidin-2-one] fall in the same range of IC50: 50 to 500 nM for the first, 50 to 500 nM for the second.

First: CN1CC[C@@](O)(c2cnn(-c3cccc(-c4ccnc(Nc5cn(CC(F)F)nc5OC5CC5)n4)n3)c2)C1=O [Example 97, (R)-3-(1-(6-(2-((3-Cyclopropoxy-1-(2,2-difluoroethyl)-1H-pyrazol-4-yl)amino)pyrimidin-4-yl)pyridin-2-yl)-1H-pyrazol-4-yl)-3-hydroxy-1-methylpyrrolidin-2-one]
Second: COc1nn(CC(F)F)cc1Nc1nccc(-c2cccc(-n3cc([C@]4(O)CCN(C)C4=O)nn3)n2)n1 [Example 122, (R)-3-(1-(6-(2-((1-(2,2-Difluoroethyl)-3-methoxy-1H-pyrazol-4-yl)amino)pyrimidin-4-yl)pyridin-2-yl)-1H-1,2,3-triazol-4-yl)-3-hydroxy-1-methylpyrrolidin-2-one]
The IC50 of the first is higher: 50 to 500 nM for the first, less than 50 nM for the second. The second is the more potent here.

`CN1CC[C@@](O)(c2cnn(-c3cccc(-c4ccnc(Nc5cnn6ccccc56)n4)n3)c2)C1=O` [Example 98, (R)-3-Hydroxy-1-methyl-3-(1-(6-(2-(pyrazolo[1,5-a]pyridin-3-ylamino)pyrimidin-4-yl)pyridin-2-yl)-1H-pyrazol-4-yl)pyrrolidin-2-one] and `CN1CC[C@@](O)(c2nnc(-c3cccc(-c4ccnc(Nc5cnn(C)c5Cl)n4)n3)s2)C1=O` [Example 102, (S)-3-(5-(6-(2-((5-Chloro-1-methyl-1H-pyrazol-4-yl)amino)pyrimidin-4-yl)pyridin-2-yl)-1,3,4-thiadiazol-2-yl)-3-hydroxy-1-methylpyrrolidin-2-one] fall in the same range of IC50: 50 to 500 nM for the first, 50 to 500 nM for the second.

First: Cc1cc(-c2cc([C@]3(O)CCN(C)C3=O)on2)nc(-c2ccnc(Nc3ccn(C)n3)n2)c1 [Example 100, (R)-3-Hydroxy-1-methyl-3-(3-(4-methyl-6-(2-((1-methyl-1H-pyrazol-3-yl)amino)pyrimidin-4-yl)pyridin-2-yl)isoxazol-5-yl)pyrrolidin-2-one]
Second: CN1CC[C@@](O)(c2cc(-c3cccc(-c4cc(Cl)nc(Nc5ccn(C)n5)n4)n3)no2)C1=O [Example 101, (R)-3-(3-(6-(6-Chloro-2-((1-methyl-1H-pyrazol-3-yl)amino)pyrimidin-4-yl)pyridin-2-yl)isoxazol-5-yl)-3-hydroxy-1-methylpyrrolidin-2-one]
The IC50 of the first is lower: less than 50 nM for the first, greater than 500 nM for the second. The first is the more potent here.

Going from `CN1CC[C@](O)(c2nnc(-c3cccc(-c4ccnc(Nc5cnn(C)c5Cl)n4)n3)s2)C1=O` [Example 103, (R)-3-(5-(6-(2-((5-chloro-1-methyl-1H-pyrazol-4-yl)amino)pyrimidin-4-yl)pyridin-2-yl)-1,3,4-thiadiazol-2-yl)-3-hydroxy-1-methylpyrrolidin-2-one] to `CN1CC(F)(F)[C@@](O)(c2cn(-c3cccc(-c4ccnc(Nc5cnn(C)c5Cl)n4)n3)nn2)C1=O` [Example 109, (R)-3-(1-(6-(2-((5-Chloro-1-methyl-1H-pyrazol-4-yl)amino)pyrimidin-4-yl)pyridin-2-yl)-1H-1,2,3-triazol-4-yl)-4,4-difluoro-3-hydroxy-1-methylpyrrolidin-2-one], the IC50 falls from greater than 500 nM to less than 50 nM. The second is the more potent here.

`CN1CC(F)(F)[C@@](O)(c2cc(-c3cccc(-c4ccnc(Nc5cnn6c5COCC6)n4)n3)no2)C1=O` [Example 110, (R)-3-(3-(6-(2-((6,7-Dihydro-4H-pyrazolo[5,1-c][1,4]oxazin-3-yl)amino)pyrimidin-4-yl)pyridin-2-yl)isoxazol-5-yl)-4,4-difluoro-3-hydroxy-1-methylpyrrolidin-2-one] and `COc1nccc(Nc2nccc(-c3cccc(-c4cc([C@]5(O)CCN(C)C5=O)on4)n3)n2)n1` [Example 113, (R)-3-Hydroxy-3-(3-(6-(2-((2-methoxypyrimidin-4-yl)amino)pyrimidin-4-yl)pyridin-2-yl)isoxazol-5-yl)-1-methylpyrrolidin-2-one] cannot be ordered by IC50: less than 50 nM for the first, less than 50 nM for the second.

Compared with `Cc1cc(Nc2nccc(-c3cccc(-n4cc([C@@]5(O)C(=O)N(C)CC5(F)F)nn4)n3)n2)ccn1` [Example 117, (R)-4,4-Difluoro-3-hydroxy-1-methyl-3-(1-(6-(2-((2-methylpyridin-4-yl)amino)pyrimidin-4-yl)pyridin-2-yl)-1H-1,2,3-triazol-4-yl)pyrrolidin-2-one], `CN1CC[C@@](O)(c2cc(-c3cccc(-c4ccnc(NCCn5ccc(N)n5)n4)n3)no2)C1=O` [Example 123, (R)-3-(3-(6-(2-((2-(3-Amino-1H-pyrazol-1-yl)ethyl)amino)pyrimidin-4-yl)pyridin-2-yl)isoxazol-5-yl)-3-hydroxy-1-methylpyrrolidin-2-one] is higher in IC50: less than 50 nM for the first, greater than 500 nM for the second.
